Test results: ChEMBL document CHEMBL1134574, “Synthesis and characterization of non-steroidal ligands for the glucocorticoid receptor: selective quinoline derivatives with prednisolone-equivalent functional activity” (J Med Chem, 2001)

Experiments:
Androgen receptor = biological target: T1, Androgen receptor (Homo sapiens, UniProt P10275); assay: Binding affinity for androgen receptor
T1 sequence (P10275 whole entry): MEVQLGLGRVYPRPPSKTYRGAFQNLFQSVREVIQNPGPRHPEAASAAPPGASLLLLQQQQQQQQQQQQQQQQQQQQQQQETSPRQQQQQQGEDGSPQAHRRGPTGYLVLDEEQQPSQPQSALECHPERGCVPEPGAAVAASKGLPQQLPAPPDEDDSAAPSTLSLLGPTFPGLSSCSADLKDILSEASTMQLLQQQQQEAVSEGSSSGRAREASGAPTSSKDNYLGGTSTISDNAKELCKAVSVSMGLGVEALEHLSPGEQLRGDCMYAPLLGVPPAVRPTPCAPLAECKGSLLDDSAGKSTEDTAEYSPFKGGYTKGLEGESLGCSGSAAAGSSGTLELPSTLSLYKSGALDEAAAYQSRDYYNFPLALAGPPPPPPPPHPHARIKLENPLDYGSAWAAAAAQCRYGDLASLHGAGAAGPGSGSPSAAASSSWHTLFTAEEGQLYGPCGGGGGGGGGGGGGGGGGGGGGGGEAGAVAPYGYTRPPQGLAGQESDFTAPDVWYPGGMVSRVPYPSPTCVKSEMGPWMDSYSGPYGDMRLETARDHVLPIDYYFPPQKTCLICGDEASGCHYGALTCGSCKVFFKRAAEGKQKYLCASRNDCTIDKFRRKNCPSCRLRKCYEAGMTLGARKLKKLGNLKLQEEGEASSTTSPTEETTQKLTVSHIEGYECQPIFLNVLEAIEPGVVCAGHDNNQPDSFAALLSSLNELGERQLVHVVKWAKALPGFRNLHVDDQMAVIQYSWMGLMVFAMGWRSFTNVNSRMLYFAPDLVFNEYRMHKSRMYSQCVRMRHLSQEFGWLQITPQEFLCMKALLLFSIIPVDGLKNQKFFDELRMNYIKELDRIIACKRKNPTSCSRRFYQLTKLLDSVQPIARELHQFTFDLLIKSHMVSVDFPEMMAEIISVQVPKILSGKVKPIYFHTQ

Progesterone receptor = biological target: T2, Progesterone receptor (Homo sapiens, UniProt P06401); assay: Binding affinity for progesterone receptor
T2 sequence (P06401 whole entry): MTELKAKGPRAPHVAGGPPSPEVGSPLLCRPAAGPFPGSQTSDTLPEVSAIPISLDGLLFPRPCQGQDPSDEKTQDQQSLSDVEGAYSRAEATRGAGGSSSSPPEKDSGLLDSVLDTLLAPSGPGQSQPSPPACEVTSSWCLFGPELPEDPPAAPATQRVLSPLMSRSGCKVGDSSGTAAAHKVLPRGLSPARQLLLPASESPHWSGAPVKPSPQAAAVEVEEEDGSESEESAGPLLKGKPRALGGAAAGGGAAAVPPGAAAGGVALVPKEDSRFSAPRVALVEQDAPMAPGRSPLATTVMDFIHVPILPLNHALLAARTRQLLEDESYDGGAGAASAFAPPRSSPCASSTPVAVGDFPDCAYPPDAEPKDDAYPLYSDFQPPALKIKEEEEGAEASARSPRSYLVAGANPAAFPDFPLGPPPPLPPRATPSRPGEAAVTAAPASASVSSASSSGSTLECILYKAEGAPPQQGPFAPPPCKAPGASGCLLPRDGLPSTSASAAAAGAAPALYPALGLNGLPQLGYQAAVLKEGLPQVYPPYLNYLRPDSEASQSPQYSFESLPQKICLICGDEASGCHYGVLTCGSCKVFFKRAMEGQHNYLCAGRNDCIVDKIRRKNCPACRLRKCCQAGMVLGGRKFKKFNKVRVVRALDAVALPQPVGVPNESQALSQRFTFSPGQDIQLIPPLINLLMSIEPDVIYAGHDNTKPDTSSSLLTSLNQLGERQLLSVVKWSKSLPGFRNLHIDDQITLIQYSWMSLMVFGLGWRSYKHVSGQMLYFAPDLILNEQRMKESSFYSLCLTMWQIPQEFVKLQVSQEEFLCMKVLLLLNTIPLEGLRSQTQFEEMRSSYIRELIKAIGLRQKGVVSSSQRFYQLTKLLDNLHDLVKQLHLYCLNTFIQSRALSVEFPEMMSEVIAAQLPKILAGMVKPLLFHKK

[1] = biological target: T3, Mineralocorticoid receptor (Homo sapiens, UniProt P08235); assay: Binding affinity for mineralocorticoid receptor
T3 sequence (P08235 whole entry): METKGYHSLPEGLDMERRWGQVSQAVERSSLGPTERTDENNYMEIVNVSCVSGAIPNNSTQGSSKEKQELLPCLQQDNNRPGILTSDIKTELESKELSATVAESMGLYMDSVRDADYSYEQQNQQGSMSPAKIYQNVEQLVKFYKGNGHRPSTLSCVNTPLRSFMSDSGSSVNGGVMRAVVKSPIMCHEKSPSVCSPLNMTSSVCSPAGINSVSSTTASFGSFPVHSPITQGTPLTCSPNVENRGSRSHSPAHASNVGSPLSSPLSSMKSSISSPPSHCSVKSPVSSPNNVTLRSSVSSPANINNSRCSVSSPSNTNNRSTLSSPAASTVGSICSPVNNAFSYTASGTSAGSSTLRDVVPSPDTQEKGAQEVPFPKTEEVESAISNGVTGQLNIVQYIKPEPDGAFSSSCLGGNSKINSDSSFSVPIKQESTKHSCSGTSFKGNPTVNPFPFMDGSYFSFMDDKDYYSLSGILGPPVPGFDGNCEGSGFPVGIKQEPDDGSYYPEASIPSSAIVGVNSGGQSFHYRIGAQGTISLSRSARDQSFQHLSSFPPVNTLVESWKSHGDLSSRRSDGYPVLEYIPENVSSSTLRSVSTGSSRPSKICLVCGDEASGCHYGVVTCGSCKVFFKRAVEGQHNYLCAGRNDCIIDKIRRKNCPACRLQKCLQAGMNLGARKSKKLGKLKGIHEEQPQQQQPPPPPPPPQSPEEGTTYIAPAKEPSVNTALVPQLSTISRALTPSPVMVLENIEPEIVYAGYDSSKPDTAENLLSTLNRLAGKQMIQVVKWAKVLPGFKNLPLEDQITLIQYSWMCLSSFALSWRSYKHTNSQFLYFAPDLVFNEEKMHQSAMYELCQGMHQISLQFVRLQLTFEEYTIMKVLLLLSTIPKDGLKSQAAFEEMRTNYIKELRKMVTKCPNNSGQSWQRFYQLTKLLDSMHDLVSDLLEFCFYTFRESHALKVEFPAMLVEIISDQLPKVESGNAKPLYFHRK

Glucocorticoid receptor [2] = biological target: T4, Glucocorticoid receptor (Homo sapiens, UniProt P04150); assay: Transcriptional repression activity in HEP G2 cells expressing glucocorticoid receptor compared to Dexamethasone; assay type: functional, cell-based, HepG2
T4 sequence (P04150 whole entry): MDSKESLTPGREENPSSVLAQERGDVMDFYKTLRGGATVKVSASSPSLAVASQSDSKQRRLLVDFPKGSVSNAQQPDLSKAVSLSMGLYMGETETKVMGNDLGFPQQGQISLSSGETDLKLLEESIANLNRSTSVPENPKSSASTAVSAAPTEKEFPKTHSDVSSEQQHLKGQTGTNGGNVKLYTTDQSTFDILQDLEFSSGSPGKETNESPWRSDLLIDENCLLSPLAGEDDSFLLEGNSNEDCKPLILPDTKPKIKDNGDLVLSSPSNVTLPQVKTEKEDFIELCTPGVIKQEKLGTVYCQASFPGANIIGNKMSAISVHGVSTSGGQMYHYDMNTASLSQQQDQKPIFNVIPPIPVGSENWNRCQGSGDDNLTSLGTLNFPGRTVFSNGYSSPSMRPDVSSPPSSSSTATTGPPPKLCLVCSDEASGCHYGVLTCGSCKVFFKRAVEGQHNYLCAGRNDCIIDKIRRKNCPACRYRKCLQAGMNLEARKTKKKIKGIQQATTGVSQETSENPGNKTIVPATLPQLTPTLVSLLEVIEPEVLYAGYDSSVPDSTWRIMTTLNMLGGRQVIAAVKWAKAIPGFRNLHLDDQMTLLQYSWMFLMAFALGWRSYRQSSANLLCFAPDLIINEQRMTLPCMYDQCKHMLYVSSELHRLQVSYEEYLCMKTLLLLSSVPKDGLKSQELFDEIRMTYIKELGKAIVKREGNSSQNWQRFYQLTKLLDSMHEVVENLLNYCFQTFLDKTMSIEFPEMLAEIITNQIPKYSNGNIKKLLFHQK

Glucocorticoid receptor [3] = biological target: T4, Glucocorticoid receptor; assay: Glucocorticoid-induced aromatase activity in human skin fibroblasts; assay type: functional
Glucocorticoid receptor [4] = biological target: T4, Glucocorticoid receptor; assay: Repression activity of GR ligand with interleukin-6 receptor in native cell assay using Dexamethasone was determined as maximal potency; assay type: functional
Glucocorticoid receptor [5] = biological target: T4, Glucocorticoid receptor; assay: Transcriptional activation in CV-1 cells expressing glucocorticoid receptor; assay type: functional, cell-based
Glucocorticoid receptor [6] = biological target: T4, Glucocorticoid receptor; assay: Binding affinity for glucocorticoid receptor
Estrogen receptor = Estrogen receptor (Homo sapiens, UniProt Q92731+P03372); assay: Binding affinity for estrogen receptor; assay type: protein assay
Glucocorticoid receptor [7] = biological target: T4, Glucocorticoid receptor; assay: Transcriptional repression of IL-1 stimulated IL-6 expression in native cells compared to Dexamethasone; assay type: functional, cell-based
Glucocorticoid receptor [8] = biological target: T4, Glucocorticoid receptor; assay: Displacement of [3H]- Dexamethasone from glucocorticoid receptor
Rattus norvegicus = organism: Rattus norvegicus; assay: Anti-asthmatic effect as eosinophil influx in rat lung model; assay type: functional

| SMILES | Ki (Androgen receptor) [µM] | Ki (Progesterone receptor) [µM] | Ki [1] [nM] | IC50 (Glucocorticoid receptor [2]) [nM] | IC50 (Glucocorticoid receptor [3]) [nM] | IC50 (Glucocorticoid receptor [4]) [nM] | IC50 (Glucocorticoid receptor [5]) [nM] | Ki (Glucocorticoid receptor [6]) [nM] | Ki (Estrogen receptor) [nM] | also measured |
| --- | --- | --- | --- | --- | --- | --- | --- | --- | --- | --- |
| COc1cccc2c1-c1ccc3c(c1C(c1cc(Cl)cc(Cl)c1)O2)C(C)=CC(C)(C)N3 (single isomer, unassigned; (+)) | > 5 | > 5 | > 5000 |  |  |  |  |  |  |  |
| COc1cccc2c1-c1ccc3c(c1C(c1cc(F)cc(F)c1)O2)C(C)=CC(C)(C)N3 (stereo unspecified) |  |  |  | 9 | 56 | 11 | 10 |  |  |  |
| COc1cccc2c1-c1ccc3c(c1C(c1ccccc1)O2)C(C)=CC(C)(C)N3 (stereo in doubt; 10) | 2.66 | > 5 | 1680 | 123 | 164 | 51 | 300 | 4.7 | > 1000 |  |
| COc1cccc2c1-c1ccc3c(c1C(c1cc(Cl)cc(Cl)c1)O2)C(C)=CC(C)(C)N3 (stereo in doubt; 17) |  | > 5 |  |  |  |  |  |  |  |  |
| COc1cccc2c1-c1ccc3c(c1C(c1ccccc1)O2)C(C)=CC(C)(C)N3 (single isomer, unassigned; (-)) |  | > 5 |  |  |  |  |  | 2.1 |  | IC50 (Glucocorticoid receptor [7]): 30 nM |
| COc1cccc2c1-c1ccc3c(c1C(c1cc(C)cc(C)c1)O2)C(C)=CC(C)(C)N3 (stereo unspecified) |  |  |  | 18 | 146 | 9.2 | 24 |  |  |  |
| COc1cccc2c1-c1ccc3c(c1C(c1ccccc1)O2)C(C)=CC(C)(C)N3 (stereo in doubt; (+)19) | > 5 | > 5 | > 5000 |  |  |  |  | 240 |  |  |
| CC1=CC(C)(C)Nc2ccc3c(c21)C(c1ccccc1)Oc1ccc(Cl)cc1-3 (stereo unspecified) | 1.4 | 0.053 | 1100 |  |  |  |  | 9.3 | > 1000 |  |
| COc1cccc2c1-c1ccc3c(c1C(c1cc(C)cc(Br)c1)O2)C(C)=CC(C)(C)N3 (stereo unspecified) |  |  |  | 18 | 314 | 12 | 29 |  |  |  |
| COc1cccc2c1-c1ccc3c(c1C(c1cccc(OC(=O)N(C)C)c1)O2)C(C)=CC(C)(C)N3 (stereo unspecified) | 3.07 | > 5 | 3910 | 6 | 216 | 26 | 12 |  | > 1000 | Ki (Glucocorticoid receptor [8]): 2.4 nM |
| COc1ccc2c(c1)-c1ccc3c(c1C(c1ccccc1)O2)C(C)=CC(C)(C)N3 (stereo unspecified) |  | 0.39 |  |  |  |  |  | 18 |  |  |
| COc1cccc2c1-c1ccc3c(c1C(c1cccc(C(F)(F)F)c1)O2)C(C)=CC(C)(C)N3 (stereo unspecified) | 3.36 |  | 493 | 57 | 105 | 32 | 44 | 11 | > 1000 |  |
| COCOc1cccc(C2Oc3cccc(OC)c3-c3ccc4c(c32)C(C)=CC(C)(C)N4)c1 (stereo unspecified) |  |  |  | 23 | 131 | 49 | 28 |  |  |  |
| COc1cccc2c1-c1ccc3c(c1C(c1cc(Cl)cc(Cl)c1)O2)C(C)=CC(C)(C)N3 (stereo in doubt; (-)22) |  | 1.56 |  |  |  |  |  |  |  |  |
| C[C@]12C=CC(=O)C=C1CC[C@@H]1[C@@H]2[C@@H](O)C[C@@]2(C)[C@H]1CC[C@]2(O)C(=O)CO [PREDNISOLONE] |  |  | 37 |  |  |  |  |  | > 1000 | ED50 (Rattus norvegicus): 1.2 mg/kg |
| COc1ccc2c(c1)OC(c1ccccc1)c1c-2ccc2c1C(C)=CC(C)(C)N2 (stereo unspecified) |  | > 5 |  |  |  |  |  | 1800 |  |  |
